The NIST ThermoML archive (doi:10.1016/j.jct.2010.03.022)
Numbers after ± are expanded uncertainties.

Details: for viscosity: 101.3 kPa; for viscosity / mass density: Liquid; for surface tension liquid-gas: Ring tensiometer

CCO [ethanol]
Details | surface tension liquid-gas [mN/m] | viscosity [mPa·s]
273.15 K | – | 1.832 ± 0.042
274.77 K | 23.59 ± 0.35 | –
274.87 K | 23.54 ± 0.35 | –
278.6 K | – | 1.649 ± 0.039
280.56 K | 23.15 ± 0.35 | 1.537 ± 0.036
281.05 K | 22.95 ± 0.35 | –
281.17 K | 23.09 ± 0.35 | 1.527 ± 0.036
284.25 K | 22.78 ± 0.34 | 1.455 ± 0.034
288.21 K | 22.7 ± 0.34 | 1.338 ± 0.032
288.23 K | 22.61 ± 0.34 | –
288.65 K | 22.63 ± 0.34 | –
293.15 K | 22.36 ± 0.34 | 1.203 ± 0.029
294.19 K | 22.4 ± 0.34 | 1.192 ± 0.029
298.15 K | 22.25 ± 0.34 | 1.096 ± 0.027
298.41 K | 22.07 ± 0.33 | 1.088 ± 0.027
298.55 K | 22.06 ± 0.33 | 1.088 ± 0.027
303.15 K | 21.63 ± 0.33 | 1.002 ± 0.025
303.2 K | 21.66 ± 0.33 | 1 ± 0.025
308.23 K | 21.33 ± 0.33 | 0.914 ± 0.023
311.79 K | 21.09 ± 0.32 | 0.855 ± 0.022
318.99 K | 20.2 ± 0.31 | 0.756 ± 0.019
321.15 K | – | 0.73 ± 0.019
323.15 K | – | 0.715 ± 0.019
328.15 K | – | 0.656 ± 0.017
333.15 K | – | 0.602 ± 0.016
338.16 K | – | 0.571 ± 0.015
343.15 K | – | 0.504 ± 0.014
346.15 K | – | 0.488 ± 0.014

Details | mass density [kg/m3]
278.15 K, 100 kPa | 803.3 ± 1.3
278.15 K, 2000 kPa | 805.9 ± 1.3
278.15 K, 4000 kPa | 807.3 ± 1.4
278.15 K, 6000 kPa | 809.2 ± 1.5
278.15 K, 8000 kPa | 810.6 ± 1.6
278.15 K, 10000 kPa | 812.7 ± 1.6
278.15 K, 15000 kPa | 815.8 ± 1.8
278.15 K, 20000 kPa | 821 ± 2
278.15 K, 25000 kPa | 823.4 ± 2.2
278.15 K, 30000 kPa | 823.8 ± 2.4
278.15 K, 35000 kPa | 825.8 ± 2.7
283.15 K, 100 kPa | 799.5 ± 1.3
283.15 K, 2000 kPa | 801.7 ± 1.4
283.15 K, 4000 kPa | 803 ± 1.4
283.15 K, 6000 kPa | 805.1 ± 1.5
283.15 K, 8000 kPa | 806.6 ± 1.6
283.15 K, 10000 kPa | 808.5 ± 1.7
283.15 K, 15000 kPa | 811.8 ± 1.9
283.15 K, 20000 kPa | 816.4 ± 2.1
283.15 K, 25000 kPa | 818.9 ± 2.3
283.15 K, 30000 kPa | 819.9 ± 2.5
283.15 K, 35000 kPa | 822.2 ± 2.7
288.15 K, 100 kPa | 795.3 ± 1.3
288.15 K, 2000 kPa | 797.5 ± 1.4
288.15 K, 4000 kPa | 798.8 ± 1.4
288.15 K, 6000 kPa | 800.9 ± 1.5
288.15 K, 8000 kPa | 802.6 ± 1.6
288.15 K, 10000 kPa | 804.2 ± 1.7
288.15 K, 15000 kPa | 807.8 ± 1.9
288.15 K, 20000 kPa | 811.9 ± 2.1
288.15 K, 25000 kPa | 814.5 ± 2.3
288.15 K, 30000 kPa | 816 ± 2.5
288.15 K, 35000 kPa | 818.6 ± 2.8
293.15 K, 100 kPa | 791.2 ± 1.3
293.15 K, 2000 kPa | 793.2 ± 1.4
293.15 K, 4000 kPa | 794.5 ± 1.4
293.15 K, 6000 kPa | 796.7 ± 1.5
293.15 K, 8000 kPa | 798.5 ± 1.6
293.15 K, 10000 kPa | 800 ± 1.7
293.15 K, 15000 kPa | 803.7 ± 1.9
293.15 K, 20000 kPa | 807.4 ± 2.1
293.15 K, 25000 kPa | 810.2 ± 2.3
293.15 K, 30000 kPa | 812.2 ± 2.6
293.15 K, 35000 kPa | 814.9 ± 2.8
298.15 K, 100 kPa | 785 ± 1.3
298.15 K, 2000 kPa | 788.8 ± 1.4
298.15 K, 4000 kPa | 790.3 ± 1.5
298.15 K, 6000 kPa | 792.5 ± 1.5
298.15 K, 8000 kPa | 794.3 ± 1.6
298.15 K, 10000 kPa | 795.8 ± 1.7
298.15 K, 15000 kPa | 799.7 ± 1.9
298.15 K, 20000 kPa | 803.1 ± 2.1
298.15 K, 25000 kPa | 806 ± 2.4
298.15 K, 30000 kPa | 808.3 ± 2.6
298.15 K, 35000 kPa | 811.3 ± 2.9
303.15 K, 100 kPa | 781.6 ± 1.3
303.15 K, 2000 kPa | 784.4 ± 1.4
303.15 K, 4000 kPa | 785.9 ± 1.5
303.15 K, 6000 kPa | 788.2 ± 1.6
303.15 K, 8000 kPa | 790.2 ± 1.6
303.15 K, 10000 kPa | 791.6 ± 1.7
303.15 K, 15000 kPa | 795.6 ± 2
303.15 K, 20000 kPa | 798.8 ± 2.2
303.15 K, 25000 kPa | 801.8 ± 2.4
303.15 K, 30000 kPa | 804.5 ± 2.7
303.15 K, 35000 kPa | 807.6 ± 2.9
308.15 K, 100 kPa | 777.9 ± 1.3
308.15 K, 2000 kPa | 780 ± 1.4
308.15 K, 4000 kPa | 781.6 ± 1.5
308.15 K, 6000 kPa | 783.9 ± 1.6
308.15 K, 8000 kPa | 785.9 ± 1.7
308.15 K, 10000 kPa | 787.3 ± 1.7
308.15 K, 15000 kPa | 791.5 ± 2
308.15 K, 20000 kPa | 794.7 ± 2.2
308.15 K, 25000 kPa | 797.8 ± 2.4
308.15 K, 30000 kPa | 800.7 ± 2.7
308.15 K, 35000 kPa | 803.9 ± 3
313.15 K, 100 kPa | 774 ± 1.3
313.15 K, 2000 kPa | 775.4 ± 1.4
313.15 K, 4000 kPa | 777.2 ± 1.5
313.15 K, 6000 kPa | 779.5 ± 1.6
313.15 K, 8000 kPa | 781.7 ± 1.7
313.15 K, 10000 kPa | 783.1 ± 1.8
313.15 K, 15000 kPa | 787.4 ± 2
313.15 K, 20000 kPa | 790.6 ± 2.2
313.15 K, 25000 kPa | 793.8 ± 2.5
313.15 K, 30000 kPa | 797 ± 2.8
313.15 K, 35000 kPa | 800.2 ± 3
318.15 K, 100 kPa | 769.7 ± 1.3
318.15 K, 2000 kPa | 770.8 ± 1.4
318.15 K, 4000 kPa | 772.8 ± 1.5
318.15 K, 6000 kPa | 775.1 ± 1.6
318.15 K, 8000 kPa | 777.3 ± 1.7
318.15 K, 10000 kPa | 778.8 ± 1.8
318.15 K, 15000 kPa | 783.2 ± 2
318.15 K, 20000 kPa | 786.5 ± 2.3
318.15 K, 25000 kPa | 789.9 ± 2.5
318.15 K, 30000 kPa | 793.2 ± 2.8
318.15 K, 35000 kPa | 796.5 ± 3.1
323.15 K, 100 kPa | 765.2 ± 1.3
323.15 K, 2000 kPa | 766.2 ± 1.4
323.15 K, 4000 kPa | 768.4 ± 1.5
323.15 K, 6000 kPa | 770.7 ± 1.6
323.15 K, 8000 kPa | 772.9 ± 1.7
323.15 K, 10000 kPa | 774.5 ± 1.8
323.15 K, 15000 kPa | 779 ± 2.1
323.15 K, 20000 kPa | 782.6 ± 2.3
323.15 K, 25000 kPa | 786.1 ± 2.6
323.15 K, 30000 kPa | 789.5 ± 2.9
323.15 K, 35000 kPa | 792.8 ± 3.1
328.15 K, 100 kPa | 760.4 ± 1.4
328.15 K, 2000 kPa | 761.5 ± 1.4
328.15 K, 4000 kPa | 763.9 ± 1.5
328.15 K, 6000 kPa | 766.2 ± 1.6
328.15 K, 8000 kPa | 768.5 ± 1.7
328.15 K, 10000 kPa | 770.3 ± 1.8
328.15 K, 15000 kPa | 774.8 ± 2.1
328.15 K, 20000 kPa | 778.7 ± 2.3
328.15 K, 25000 kPa | 782.3 ± 2.6
328.15 K, 30000 kPa | 785.7 ± 2.9
328.15 K, 35000 kPa | 789 ± 3.2
333.15 K, 100 kPa | 755.4 ± 1.4
333.15 K, 2000 kPa | 756.7 ± 1.5
333.15 K, 4000 kPa | 759.4 ± 1.6
333.15 K, 6000 kPa | 761.6 ± 1.7
333.15 K, 8000 kPa | 764 ± 1.7
333.15 K, 10000 kPa | 766 ± 1.8
333.15 K, 15000 kPa | 770.6 ± 2.1
333.15 K, 20000 kPa | 774.9 ± 2.4
333.15 K, 25000 kPa | 778.6 ± 2.7
333.15 K, 30000 kPa | 782 ± 3
333.15 K, 35000 kPa | 785.2 ± 3.2
338.15 K, 100 kPa | 750 ± 1.4
338.15 K, 2000 kPa | 751.8 ± 1.5
338.15 K, 4000 kPa | 754.9 ± 1.6
338.15 K, 6000 kPa | 757 ± 1.7
338.15 K, 8000 kPa | 759.5 ± 1.8
338.15 K, 10000 kPa | 761.7 ± 1.9
338.15 K, 15000 kPa | 766.3 ± 2.1
338.15 K, 20000 kPa | 771.2 ± 2.4
338.15 K, 25000 kPa | 775 ± 2.7
338.15 K, 30000 kPa | 778.3 ± 3
338.15 K, 35000 kPa | 781.4 ± 3.3
343.15 K, 100 kPa | 744.3 ± 1.4
343.15 K, 2000 kPa | 746.8 ± 1.5
343.15 K, 4000 kPa | 750.3 ± 1.6
343.15 K, 6000 kPa | 752.3 ± 1.7
343.15 K, 8000 kPa | 754.9 ± 1.8
343.15 K, 10000 kPa | 757.3 ± 1.9
343.15 K, 15000 kPa | 762 ± 2.2
343.15 K, 20000 kPa | 767.6 ± 2.4
343.15 K, 25000 kPa | 771.5 ± 2.7
343.15 K, 30000 kPa | 774.6 ± 3
343.15 K, 35000 kPa | 777.6 ± 3.4
348.15 K, 100 kPa | 738.4 ± 1.4
348.15 K, 2000 kPa | 741.8 ± 1.5
348.15 K, 4000 kPa | 745.6 ± 1.6
348.15 K, 6000 kPa | 747.6 ± 1.7
348.15 K, 8000 kPa | 750.2 ± 1.8
348.15 K, 10000 kPa | 753 ± 1.9
348.15 K, 15000 kPa | 757.7 ± 2.2
348.15 K, 20000 kPa | 764 ± 2.4
348.15 K, 25000 kPa | 768 ± 2.8
348.15 K, 30000 kPa | 770.9 ± 3.1
348.15 K, 35000 kPa | 773.7 ± 3.4
353.15 K, 2000 kPa | 736.7 ± 1.5
353.15 K, 4000 kPa | 741 ± 1.6
353.15 K, 6000 kPa | 742.8 ± 1.7
353.15 K, 8000 kPa | 745.5 ± 1.8
353.15 K, 10000 kPa | 748.6 ± 1.9
353.15 K, 15000 kPa | 753.3 ± 2.2
353.15 K, 20000 kPa | 760.5 ± 2.5
353.15 K, 25000 kPa | 764.6 ± 2.8
353.15 K, 30000 kPa | 767.2 ± 3.1
353.15 K, 35000 kPa | 769.9 ± 3.5
